Test results taken from US20130204033A1, “ANTIPROLIFERATIVE COMPOUNDS, CONJUGATES THEREOF, METHODS THEREFOR, AND USES THEREOF” (Medarex, Inc., priority 2009, published 2013).
pEC50: −log10 of the molar value. Where two headings read alike, the source gives them in different places.

Key:
Type in all cases: cell-based, human
HCT-15 = assay: 3H thymidine proliferation assay, HCT-15; conditions: 3H thymidine method, 72 h incubation, read-out: EC50, HCT-15
Protocol: (§1) This example generally describes the procedures used to assay the antiproliferative activity of compounds of this invention or their conjugates. Human tumor cell lines were obtained from the American Type Culture Collection (ATCC), P.O. Box 1549, Manassas, Va. 20108, USA, and cultured according to instruction from the ATCC. Cells were seeded at 1.0×10^3 or 1.0×10^4 cells/well in 96-well plates for 3 h for ATP assays or ^3H thymidine assays, respectively. 1:3 serial dilutions of free (unconjugated) compounds or their conjugates were added to the wells. Plates were allowed to incubate for 24 to 72 h. The ^3H thymidine plates were pulsed with 1.0 μCi of ^3H-thymidine per well for the last 24 hours of the total incubation period, harvested, and read on a Top Count Scintillation Counter (Packard Instruments, Meriden, Conn.). ATP levels in the ATP plates were measured using the […]-GLO® Luminescent Cell Viability kit following the manufacturer's manual and read on a GLOMAX® 20/20 luminometer (both from Promega, Madison, Wis., USA). The EC50 values—the concentration at which an agent inhibits or reduces cell proliferation by 50% —were determined using PRISM™ software, version 4.0 (GraphPad Software, La Jolla, Calif., USA).
(§2) Using the ^3H thymidine or the ATP luminescence assay, or both, the activities of compounds of this invention were assayed against the following cancer cell lines: HCT-15 (colorectal cancer, multi-drug resistant (MDR)); Hep3B (liver cancer); LNCaP (prostate cancer, androgen receptor positive (AR^+)); MDA-MB-231 (breast cancer, estrogen receptor, progesterone receptor, and Her2 negative (triple negative)); A2058 (melanoma); U-87 MG (glioblastoma); NCI-H460 (NSCLC); A549 (NSCLC); HPAC (pancreatic cancer, primary); PC3 (prostate cancer, AR); BT474 (breast cancer, Her2 highly positive (Her2hi)); SKOV3 (ovarian cancer, Her2hi); 786-O (renal cancer); UO-31 (renal cancer, MDR); NCI-H740 (SCLC); DMS53 (SCLC); SK-BR3 (breast cancer, Her2hi); ZR-75 (breast cancer, estrogen receptor positive); OVCAR3 (ovarian cancer); HL-60 (APL); OVCAR8/Adr (ovarian cancer, MDR); CEM-Cl (ALL); Nomo-1 (AML); RPMI-8226 (MM)); Raji (lymphoma); SW-480 (colorectal cancer, metastatic); SW-620 (colorectal cancer); and H226 (lung cancer). (Not all compounds were assayed against all cell lines.)
(§3) Table 2 provides the data for proliferation assays using the ^3H thymidine method, with an incubation period of 72 h.

Hep3B = assay: 3H thymidine proliferation assay, Hep3B; conditions: 3H thymidine method, 72 h incubation, read-out: EC50, Hep3B
Protocol: as §1, §2, §3

LNCaP = assay: 3H thymidine proliferation assay, LNCaP; conditions: 3H thymidine method, 72 h incubation, read-out: EC50, LNCaP
Protocol: as §1, §2, §3

MDA-MB-231 [1] = assay: 3H thymidine proliferation assay, MDA-MB-231; conditions: 3H thymidine method, 72 h incubation, read-out: EC50, MDA-MB-231
Protocol: as §1, §2, §3

HPAC = assay: 3H thymidine proliferation assay, HPAC; conditions: 3H thymidine method, 72 h incubation, read-out: EC50, HPAC
Protocol: as §1, §2, §3

UO-31 = assay: 3H thymidine proliferation assay, UO-31; conditions: 3H thymidine method, 72 h incubation, read-out: EC50, UO-31
Protocol: as §1, §2, §3

OVCAR8 = assay: 3H thymidine proliferation assay, OVCAR8; conditions: 3H thymidine method, 72 h incubation, read-out: EC50, OVCAR8
Protocol: as §1, §2, §3

CEM-C1 = assay: 3H thymidine proliferation assay, CEM-C1; conditions: 3H thymidine method, 72 h incubation, read-out: EC50, CEM-C1
Protocol: as §1, §2, §3

MDA-MB-231 [2] = assay: ATP luminescence proliferation assay, MDA-MB-231; conditions: ATP luminescence, MDA-MB-231, 72 h incubation, read-out: EC50 MDA-MB-231 (72 h)
Protocol: as §1, §2
(§4) Table 3 provides the data for the ATP luminescence proliferation assays, with an incubation period of 48, 72, or 96 h, as noted.

A2058 [3] = assay: ATP luminescence proliferation assay, A2058; conditions: ATP luminescence, A2058, 72 h incubation, read-out: EC50 A2058 (72 h)
Protocol: as §1, §2, §4

NCI-H460 = assay: ATP luminescence proliferation assay, NCI-H460; conditions: ATP luminescence, NCI-H460, 72 h incubation, read-out: EC50 NCI-H460 (72 h)
Protocol: as §1, §2, §4

PC3 = assay: ATP luminescence proliferation assay, PC3; conditions: ATP luminescence, PC3, 48 h incubation, read-out: EC50 PC3 (48 h)
Protocol: as §1, §2, §4

OVCAR3 = assay: ATP luminescence proliferation assay, OVCAR3; conditions: ATP luminescence, OVCAR3, 48 h incubation, read-out: EC50 OVCAR3 (48 h)
Protocol: as §1, §2, §4

HL-60 = assay: ATP luminescence proliferation assay, HL-60; conditions: ATP luminescence, HL-60, 72 h incubation, read-out: EC50 HL-60 (72 h)
Protocol: as §1, §2
FIGS. 12a and 12b show illustrative plots for ATP luminescence proliferation assays for a second set of compounds of this invention, against HL-60 and 786-O cells, respectively, with an incubation period of 72 h. FIGS. 12c and 12d show the plots for ^3H thymidine proliferation assays for the same set of compounds, again against HL-60 and 786-O cells, respectively, with a 72 h incubation period. In each instance, doxorubicin was used as a comparative compound.
as §4

Raji = assay: ATP luminescence proliferation assay, Raji; conditions: ATP luminescence, 72 h incubation, read-out: EC50 Raji (72 h)
Protocol: as §1, §2, §4

SW-480 = assay: ATP luminescence proliferation assay, SW-480; conditions: ATP luminescence, SW480, 96 h incubation, read-out: EC50 SW480 (96 h)
Protocol: as §1, §2, §4

A2058 [4] = assay: 3H thymidine proliferation assay, A2058; conditions: 3H thymidine method, 72 h incubation
Protocol: as §1, §2, §3

SK-BR3 = assay: 3H thymidine proliferation assay, SK-BR3; conditions: 3H thymidine method, 72 h incubation
Protocol: as §1, §2, §3

SMILES | pEC50 (HCT-15; Homo sapiens, HCT-15) | pEC50 (Hep3B; Homo sapiens, Hep3B) | pEC50 (LNCaP; Homo sapiens, LNCaP) | pEC50 (MDA-MB-231 [1]; Homo sapiens, MDA-MB-231) | pEC50 (HPAC; Homo sapiens, HPAC) | pEC50 (UO-31; Homo sapiens, UO-31) | pEC50 (OVCAR8; Homo sapiens, OVCAR-8) | pEC50 (HCT-15) | pEC50 (Hep3B) | pEC50 (LNCaP) | pEC50 (HPAC) | pEC50 (UO-31) | pEC50 (OVCAR8) | pEC50 (CEM-C1) | pEC50 (A2058 [3]) | pEC50 (NCI-H460) | pEC50 (PC3) | pEC50 (OVCAR3) | pEC50 (Raji) | pEC50 (SW-480) | further results
COc1cccc2c1C(=O)c1c(O)c3c(c(O)c1C2=O)C[C@@](O)(C(=O)CO)C[C@@H]3O[C@H]1C[C@H](N)[C@H](O)[C@H](C)O1 [Dox, doxorubicin, reference compound] | 6.83 | 7.36 | 6.89 | 6.88 | 6.90 | 6.57 | 5.69 |  |  |  |  |  |  |  |  |  |  |  |  |  | pEC50 (CEM-C1; Homo sapiens, CEM/C1): 6.84; pEC50 (MDA-MB-231 [2]; Homo sapiens): 6.29; pEC50 (A2058 [3]; Homo sapiens): 7.00; pEC50 (NCI-H460; Homo sapiens): 7.04; pEC50 (PC3; Homo sapiens, PC-3): 5.97; pEC50 (OVCAR3; Homo sapiens, OVCAR-3): 6.20; pEC50 (HL-60; Homo sapiens): 6.83; pEC50 (Raji; Homo sapiens): 6.52; pEC50 (SW-480; Homo sapiens): 6.67
Nc1ccc(C(=O)Nc2ccc3[nH]c(C(=O)N4C[C@@H](CCl)c5c4cc(O)c4ccccc54)cc3c2)cc1 [CBI, reference compound] | 10.40 | 10.70 | 10.29 | 10.72 | 10.20 | 10.46 | 9.80 |  |  |  |  |  |  |  |  |  |  |  |  |  | pEC50 (CEM-C1; Homo sapiens, CEM/C1): 9.96; pEC50 (MDA-MB-231 [2]; Homo sapiens): 8.51; pEC50 (A2058 [3]; Homo sapiens): 9.70; pEC50 (NCI-H460; Homo sapiens): 9.19; pEC50 (PC3; Homo sapiens, PC-3): 7.92; pEC50 (OVCAR3; Homo sapiens, OVCAR-3): 8.39; pEC50 (HL-60; Homo sapiens): 9.12; pEC50 (Raji; Homo sapiens): 8.68; pEC50 (SW-480; Homo sapiens): 9.04
CC[C@H](C)[C@H](NC(=O)[C@H]1CCCCN1C)C(=O)N(COC(=O)CC(C)C)[C@H](C[C@@H](OC(C)=O)c1nc(C(=O)N[C@@H](Cc2ccccc2)C[C@H](C)C(=O)O)cs1)C(C)C [Tub D, tubulysin D, reference compound] |  |  |  |  |  |  |  | 10.21 | 10.66 | 9.44 | 10.82 | 10.00 | 9.77 | 10.74 | 11.19 | 11.12 | 10.41 | 10.07 | 11.32 | 10.70 | pEC50 (MDA-MB-231 [1]): 10.04; pEC50 (MDA-MB-231 [2]): 10.33; pEC50 (HL-60): 11.02
CCC[C@H](NC(=O)[C@H](Cc1ccccc1)NC(=O)c1csc([C@@H](C[C@H](C(C)C)N(C)C(=O)[C@@H](NC(=O)[C@H]2CCCCN2C)[C@@H](C)CC)OC)n1)C(=O)OC [Compound 19] |  |  |  |  |  |  |  | 5.97 | 7.28 | < 7.00 | < 7.00 | < 7.00 | 7.16 | 7.66 | 7.59 | 7.37 | ~7.48 | 7.60 | 8.04 | 7.28 | pEC50 (A2058 [4]): 9.89; pEC50 (SK-BR3): < 7.00; pEC50 (MDA-MB-231 [2]): 7.49; pEC50 (HL-60): 8.11
CC[C@H](C)[C@H](NC(=O)[C@H]1CCCCN1C)C(=O)N(C)[C@H](C[C@@H](OC)c1nc(C(=O)N[C@@H](Cc2ccc(N)cc2)CC(C)C(=O)O)cs1)C(C)C (stereo partly drawn) [Compound 51] |  |  |  |  |  |  |  | 7.00 | 8.38 | 7.39 | 8.19 | 7.46 | 7.70 | 8.70 | 8.26 | 7.85 | 7.80 | 8.26 | 8.30 | 7.89 | pEC50 (MDA-MB-231 [1]): 8.06; pEC50 (A2058 [4]): 9.40; pEC50 (SK-BR3): < 7.00
